Structures can show the parent of a compound that is named as a salt. Where two headings read alike, the source gives them in different places.
Key:
OCI-AML3 cells = assay: Proliferation assay (spheroid growth, 8 days), OCI-AML3; format: cell-based, human; details: OCI-AML3, 8 days
Outline: (§1)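 200 MOLM14 (MLL-AF9), 200 OCI-AML3 (NPM1c) or 300 KO-52 (MLL wildtype) cells were grown as spheroids in ultra-low attachment wells with compound, 0.3% DMSO, for 8 days at 37 °C. Confluence was imaged on day 8, normalized to DMSO and top-dose reference compound. IC50 came from a variable-slope fit constrained 0–100%.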

[1] = molecular target: menin/MLL (terbium chelate-labeled menin, FITC-MBM1 peptide) (Homo sapiens (Human), UniProt O00255); assay: Menin/MLL homogenous time-resolved fluorescence (HTRF) assay; format: binding; details: HTRF-30 min incubation IC50, 30 min incubation;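 note: IC50 from percent inhibition of HTRF signal, normalized between wells without competitor and wells with a saturating competitor that displaces FITC-MBM1 from His-tagged menin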
Chain of menin/MLL (terbium chelate-labeled menin, FITC-MBM1 peptide) (O00255 other isoform, or with tags, fused parts or gaps): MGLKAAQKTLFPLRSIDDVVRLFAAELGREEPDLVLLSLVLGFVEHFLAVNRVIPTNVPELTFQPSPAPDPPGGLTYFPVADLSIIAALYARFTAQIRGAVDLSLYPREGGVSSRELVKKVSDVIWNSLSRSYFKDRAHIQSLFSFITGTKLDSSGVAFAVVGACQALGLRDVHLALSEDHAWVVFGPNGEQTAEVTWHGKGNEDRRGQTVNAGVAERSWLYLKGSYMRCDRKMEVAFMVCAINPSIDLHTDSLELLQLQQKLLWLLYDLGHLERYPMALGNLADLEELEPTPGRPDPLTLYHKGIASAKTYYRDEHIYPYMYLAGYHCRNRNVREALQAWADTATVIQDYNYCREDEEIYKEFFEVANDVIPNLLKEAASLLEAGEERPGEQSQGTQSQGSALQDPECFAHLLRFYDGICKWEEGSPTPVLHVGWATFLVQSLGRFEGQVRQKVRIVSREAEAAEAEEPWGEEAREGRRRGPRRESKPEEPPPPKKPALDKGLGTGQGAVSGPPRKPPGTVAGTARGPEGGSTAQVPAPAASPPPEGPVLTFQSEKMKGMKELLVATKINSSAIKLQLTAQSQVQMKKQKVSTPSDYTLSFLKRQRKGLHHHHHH

MEIS1 mRNA = MEIS1 mRNA expression assay (Quantigene Singleplex) in MOLM14 cells; format: cell-based, human; details: Homo sapiens, MOLM-14, 48 h, 48 hours incubation;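 note: MEIS1 transcript levels read by probe hybridization and normalized to RPL28 mRNA, with IC50 fitted to fold changes across a rising compound concentration series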
KO-52 cells = assay: Proliferation assay (spheroid growth, 8 days), KO-52 control cell line; format: cell-based, human; details: Homo sapiens, […], read-out: spheroid assay_OneTime KO-52 IC50
Outline: as §1

MOLM14 cells = assay: Proliferation assay (spheroid growth, 8 days), MOLM14; format: cell-based, human; details: MOLM14, 8 days, read-out: spheroid assay_OneTime MOLM14 IC50;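 note: spheroid size read as confluence by live-cell imaging, compounds added at a range of concentrations with 0.3% DMSO, DMSO-treated wells = 0%, highest reference dose = low control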
hERG = hERG (Homo sapiens (Human), UniProt Q12809); assay: Effect on membrane potassium current IKr in hERG-transfected HEK293 cells, Protocol 2 (SyncroPatch 384PE); format: cell-based; details: Protocol 2, hERG-transfected HEK293 cells
Chain of hERG (Q12809 whole entry): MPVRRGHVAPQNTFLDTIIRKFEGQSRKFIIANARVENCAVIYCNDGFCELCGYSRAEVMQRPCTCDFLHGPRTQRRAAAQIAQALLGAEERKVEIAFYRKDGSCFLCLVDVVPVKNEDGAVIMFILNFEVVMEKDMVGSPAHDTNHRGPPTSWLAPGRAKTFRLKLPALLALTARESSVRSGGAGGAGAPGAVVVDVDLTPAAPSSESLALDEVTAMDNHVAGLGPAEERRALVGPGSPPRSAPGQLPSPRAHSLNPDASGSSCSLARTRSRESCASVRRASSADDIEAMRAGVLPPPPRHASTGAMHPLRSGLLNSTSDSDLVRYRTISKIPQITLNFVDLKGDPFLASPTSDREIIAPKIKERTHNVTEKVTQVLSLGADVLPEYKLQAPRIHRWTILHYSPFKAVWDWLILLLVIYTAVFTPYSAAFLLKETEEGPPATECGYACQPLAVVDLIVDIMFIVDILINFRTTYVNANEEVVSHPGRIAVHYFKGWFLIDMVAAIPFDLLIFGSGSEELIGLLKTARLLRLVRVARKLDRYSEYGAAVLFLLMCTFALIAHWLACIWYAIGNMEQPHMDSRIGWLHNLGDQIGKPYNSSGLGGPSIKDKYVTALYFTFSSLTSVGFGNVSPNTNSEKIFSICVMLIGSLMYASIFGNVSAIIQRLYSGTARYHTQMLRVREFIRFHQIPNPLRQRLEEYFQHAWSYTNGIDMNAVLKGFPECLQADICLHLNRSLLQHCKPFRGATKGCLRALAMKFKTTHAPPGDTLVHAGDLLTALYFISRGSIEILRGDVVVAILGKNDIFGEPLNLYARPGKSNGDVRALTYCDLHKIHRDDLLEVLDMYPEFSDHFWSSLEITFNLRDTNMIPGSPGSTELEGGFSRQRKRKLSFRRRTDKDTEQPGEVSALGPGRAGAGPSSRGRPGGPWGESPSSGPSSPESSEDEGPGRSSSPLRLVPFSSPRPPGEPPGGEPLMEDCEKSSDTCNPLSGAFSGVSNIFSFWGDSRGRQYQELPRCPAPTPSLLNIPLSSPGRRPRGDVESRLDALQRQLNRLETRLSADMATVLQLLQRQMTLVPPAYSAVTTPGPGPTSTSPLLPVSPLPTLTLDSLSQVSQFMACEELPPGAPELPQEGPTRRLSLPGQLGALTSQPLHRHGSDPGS
Procedure: 8) Effect on the Membrane Potassium Current IKr in hERG Transfected Cell Lines
The compound, vehicle control and positive control were tested on hERG-transfected HEK293 cells. A human embryonic kidney cell line (HEK293) with a stable transfection of hERG (Zhou Z et al. Biophysical Journal 1998. 74, 230-241; McDonald T. V. et al, Nature 1997. 388, 289-292) was used (University of Wisconsin, Madison, USA). The cells were kept in culture in MEM (Minimum Essential Medium, Gibco) which was supplemented with (amounts indicated added to 500 ml MEM): 5 ml L-Glutamine-Penicillin-Streptomycin (Sigma), 50 ml Fetal Bovine serum (Bio-Whittaker), 5 ml Non-essential Amino Acids 100× (Gibco), 5 ml sodium pyruvate 100 mM (Gibco) and 4 ml geneticin 50 mg/ml (Gibco) using T175 flasks. The cells were incubated at 37° C. in 5% CO2 atmosphere (in air).
Cell Harvesting for Assay
Cells were harvested as described below using Accumax™ (Sigma) as the dissociating reagent. Cells were then resuspended in a mixture of 33% DMEM/F12 (Dulbecco's Modified Eagle Medium/Nutrient Mixture F-12—Sigma) media/67% extracellular physiological solution.
The flasks were washed twice carefully with ˜5-10 ml phosphate buffered saline (PBS) (Gibco™) containing 2 mM EDTA (Ethylenediaminetetraacetic acid) (Sigma). The cells were dissociated using ˜3 ml of Accumax™ (cell detachment solution) and incubated for ˜5 to 10 min. at 37° C. Cold external physiological solution (2-5 ml) was added and the flasks are incubated at ˜4° C. for 5-10 min. Then, the cell suspension in each flask was gently dissociated with a 5 ml pipette. The cell suspension was transferred to a low binding petri-dish (˜[…]). Each flask was washed with ˜additional 5 ml cold external physiological solution and this solution was also added to the petri-dish. The petri-dish was then incubated for another 5 to 10 minutes at ˜4° C. After another gentle dissociation of the cell suspension in the petri dish, the cells were transferred to a reservoir kept on an orbital shaker at 200 rpm at 16° C. Before experiments were performed, the cells recovered for ˜20 min.
A 10 mM solution of the compound was used and plated in a 384 well plate. Aliquots of the stock solutions are diluted with the recording solution (see section 3) using automated liquid handling (Biomek FXP; final DMSO concentration: 0.03 to 0.3%). A standard range of screening concentrations was used ranging from 1 μM to 30 μM.
A positive control (E-4031) was included within each run to evaluate the sensitivity of the assay.
External and Intracellular Solutions Used in the Experiments
In the table below the composition of the intracellular and external buffer solutions is shown in [mM] (“NMDG” means N-methyl-D-glucamine)
The whole cell patch clamp technique on transfected cells allows the study of ion-channels with no—or limited interference from other ion-channels. The effects of the compounds on the hERG current were studied with an automated planar patch clamp system, SyncroPatch 384PE (Obergrussberger et al, Journal of Laboratory Automation 2016. 21 (6). 779-793). All cells were recorded in the whole cell mode of the patch clamp technique. The module is incorporated in a liquid handling pipetting robot system, Biomek FXP, for application of cells and compounds, vehicle control and positive control.
The different concentrations of the compounds were applied in two cumulatively increasing concentrations for the compounds (1 μM and 10 μM, and 3 μM and 30 μM, respectively). The hERG current was determined as the maximal tail current at −30 mV and percent inhibition upon compound or vehicle and positive control addition was reported.
After cells are caught onto the individual holes of the recording chips using the chip fill solution, the seal is increased with the seal enhancer solution (increased [Ca^2+]; then the cells were washed twice with recording solution before using a pressure protocol to go into the whole cell mode. […]

Cor.4U Cardiomyocytes = assay: Ca2+-fluorescence assay in human pluripotent stem cell-derived cardiomyocytes (CTCM human), Cor.4U Cardiomyocytes; format: cell-based; design: key: Green: No concern; Yellow: Low concern; Red: High concern; Black: Very high concern due to arrhythmic events; details: 30 min
Procedure: 7) Cardio-Electrophysiological Effects of the Testing Compounds in Synchronously Beating Human Pluripotent Stem Cell-Derived Cardiomyocytes (hSC-CMs) Using a Ca^2+-Fluorescence Assay (CTCM Human)
Compounds were tested in the 96-well plates
Compounds were tested at 0.1 μM, 0.2 μM, 0.5 μM, 1 μM, 2.5 μM and 5 μM (n=4 per dose) on Cor.4U 9-Cardiomyocytes or on iCell® Cardiomyocytes2 […]
Dimethylsulfoxide (DMSO). The solutions of the compound in DMSO or its solvent (final concentration of 0.1% DMSO; n=8)
Preparation of Test Article and Controls
Tested compounds were dissolved in DMSO at 1000-fold the intended concentrations. A compound “mother-plate” was made, containing the test compounds and positive and negative controls at 1000-fold the final concentrations. At the experiment day, these stock solutions were diluted with Tyrode (Sigma), supplemented with 10 mM HEPES (Gibco), to 2-fold the intended concentration (in round bottom compound plates). Final DMSO concentration in test solutions and vehicle control was 0.1%.
hSC-CMs (Cor.4U® Cardiomyocytes) were obtained from CDI (Ncardia, Germany). Cells are pre-plated and seeded in fibronectin-coated 96-well plates at a density suited to form a monolayer and maintained in culture in a stage incubator (37° C., 5% CO2), according to the instructions of the cell provider.
Before Start of Experiment
At least one hour before the start of the experiments the normal cell medium was replaced with Tyrode solution with Calcium dye (see below).
Cal 520 dye (AAT Bioquest) was dissolved in 11 ml of Tyrode supplemented with 10 mM HEPES and warmed up to 37° C. before adding to the cells.
35 μl cell culture medium was removed from each well and replaced with 35 μl of pre-warmed Cal 520 dye solution and cell plate was incubated for 45 min at 37° C./5% CO2. Cells were incubated for 5 min at 37° C.
Spontaneous electrical activity is recorded, using Cal520™ (AAT Bioquest) calcium fluorescence-dye signaling. This dye integrates the total intracellular calcium activity over the whole well. A bottle of Cal520 dye (50 μg, MW: 1103/mol) is dissolved with 50 μl DMSO as a stock solution of 0.9 mM. 50 μL of the stock solution of the dye was added to 10 ml Tryodes solution to have dye concentration of 4.5 μM. Subsequently, 35 μl of this dye solution was added into each well, to have a final dye concentration of 1.58 μM. The current dye protocol on this CTCM human assay was established recently (Ivan Kopljar et al, Journal of Pharmacological and toxicological methods 2018. 91: 80-86; Lu et al., Tox Sci 2019. 170 (2): 345-356).
Fluorescent signals (Ca^2+ transient morphology) were measured using the Functional Drug Screen System (FDSS/μCell; Hamamatsu, Japan) and the recordings were subsequently analyzed off-line, using appropriate software e.g. Notocord.
The cell plate was loaded into the FDSS/μCell for a test run: Ca^2+ transients were measured for 4 minutes to check for synchronous beating of the cardiomyocytes in each well. All 96 wells were measured simultaneously (sampling interval: 0.06 s, short exposure time: 10 ms; excitation wavelength 480 nm; emission wavelength 540 nm; FDSS/μCell warmed to 37° C.).
During the compound addition step, 100 μl of the respective double-concentrated test solutions was pipetted into each well simultaneously.
Data were analyzed off-line using appropriate software e.g. Notocord-Hem (version 4.3).
The following parameters of the Ca^2′ transient morphology were measured: • beat rate (BR) • amplitude of the Ca^2+ transient (Amp), • CTD90: Ca^2+ transient duration at 90% (time to 90% of the initial base value).
The presence of various ‘arrhythmia-like’ activities were also noted during the experimental periods. […]

hERG potassium channel = hERG potassium channel (Homo sapiens (Human), UniProt Q12809); assay: Effect on membrane potassium current IKr in hERG transfected CHO cells, Protocol 1 (QPatch); format: cell-based
Chain of hERG potassium channel (Q12809 whole entry): as above
Outline: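 Whole-cell automated patch clamp on CHO cells stably expressing hERG, held at −80 mV; the value is the tail current at −40 mV after a 2 s step to +60 mV, at pH 7.4 bath and pH 7.2 pipette. After 0.3% DMSO control, compound was applied at 3×10^−7 M, 3×10^−6 M, 10^−5 M and 3×10^−5 M, 5 min each. IC50 comes from a non-linear least-squares fit of block versus vehicle.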

| Structure (SMILES) | IC50 (OCI-AML3 cells; Homo sapiens, OCI-AML-3, […]) | IC50 [1] | IC50 (MEIS1 mRNA) | IC50 (MOLM14 cells; Homo sapiens, MOLM-14, […]) | IC50 (OCI-AML3 cells; hydrochloride) | IC50 (MOLM14 cells; hydrochloride) | IC50 (KO-52 cells) | IC50 (hERG) | Color @ 0.1 μM (hazard score) (Cor.4U Cardiomyocytes; 0.1 μM) | Color @ 0.2 μM (hazard score) (Cor.4U Cardiomyocytes; 0.2 μM) | Color @ 0.5 μM (hazard score) (Cor.4U Cardiomyocytes; 0.5 μM) | Color @ 1 μM (hazard score) (Cor.4U Cardiomyocytes; 1 μM) | Color @ 2.5 μM (hazard score) (Cor.4U Cardiomyocytes; 2.5 μM) | Color @ 5 μM (hazard score) (Cor.4U Cardiomyocytes; 5 μM) | IC50 (hERG potassium channel) |
| --- | --- | --- | --- | --- | --- | --- | --- | --- | --- | --- | --- | --- | --- | --- | --- |
| CC(C)[C@H](CCCN(C)CCC(=O)N(C)C)N1CC2(CCN(c3ncnnc3Oc3ccc(F)cc3C(=O)N(C(C)C)C(C)C)C2)C1 (single isomer, unassigned) [Compound 146, (*S)-2-((5-(2-(6-((3-(dimethylamino)-3-oxopropyl)(methyl)amino)-2-methylhexan-3-yl)-2,6-diazaspiro[3.4]octan-6-yl)-1,2,4-triazin-6-yl)oxy)-5-fluoro-N,N-diisopropylbenzamide fumarate] | 1790 nM | 0.081 nM | 440 nM | 320 nM |  |  | > 15000 nM | > 30200 nM |  |  |  |  |  |  |  |
| CCN(C(=O)c1cc(F)ccc1Oc1nncnc1N1CCC2(C1)CN([C@H](CCN(C)C)C(C)C)C2)C(C)C (single isomer, unassigned) [Compound 223, (*R)-2-((5-(2-(1-(dimethylamino)-4-methylpentan-3-yl)-2,6-diazaspiro[3.4]octan-6-yl)-1,2,4-triazin-6-yl)oxy)-N-ethyl-5-fluoro-N-isopropylbenzamide fumarate] | 990 nM | 0.4 nM | 200 nM | 180 nM |  |  | > 15000 nM | > 30200 nM |  |  |  |  |  |  |  |
| CCN(C(=O)c1cc(F)ccc1Oc1nncnc1N1CCC2(C1)CN([C@H](CCCNC)C(C)C)C2)C(C)C [Compound 19, (R)-N-ethyl-5-fluoro-N-isopropyl-2-((5-(2-(2-methyl-6-(methylamino)hexan-3-yl)-2,6-diazaspiro[3.4]octan-6-yl)-1,2,4-triazin-6-yl)oxy)benzamide hydrochloride] |  |  |  |  | 160 nM | 58 nM |  |  | Green | Green | Green | Green | Green | Green | > 30200 nM |
| CCN(C(=O)c1cc(F)ccc1Oc1nncnc1N1CCC2(C1)CN([C@H](CCCN(C)CCN(C)C(C)=O)C(C)C)C2)C(C)C [Compound 148, (R)-N-ethyl-5-fluoro-N-isopropyl-2-((5-(2-(2-methyl-6-(methyl(2-(N-methylacetamido)ethyl)amino)hexan-3-yl)-2,6-diazaspiro[3.4]octan-6-yl)-1,2,4-triazin-6-yl)oxy)benzamide fumarate] | 340 nM | 0.35 nM | 60 nM | 41 nM |  |  | > 15000 nM | 12300 nM |  |  |  |  |  |  |  |

Continued, in another order:

| IC50 (OCI-AML3 cells; Homo sapiens, OCI-AML-3, […]) | IC50 [1] | IC50 (MEIS1 mRNA) | IC50 (MOLM14 cells; Homo sapiens, MOLM-14, […]) | IC50 (OCI-AML3 cells; hydrochloride) | IC50 (MOLM14 cells; hydrochloride) | Structure (SMILES) | IC50 (KO-52 cells) | IC50 (hERG) | Color @ 0.1 μM (hazard score) (Cor.4U Cardiomyocytes; 0.1 μM) | Color @ 0.2 μM (hazard score) (Cor.4U Cardiomyocytes; 0.2 μM) | Color @ 0.5 μM (hazard score) (Cor.4U Cardiomyocytes; 0.5 μM) | Color @ 1 μM (hazard score) (Cor.4U Cardiomyocytes; 1 μM) | Color @ 2.5 μM (hazard score) (Cor.4U Cardiomyocytes; 2.5 μM) | Color @ 5 μM (hazard score) (Cor.4U Cardiomyocytes; 5 μM) | IC50 (hERG potassium channel) |
| --- | --- | --- | --- | --- | --- | --- | --- | --- | --- | --- | --- | --- | --- | --- | --- |
| 130 nM | 0.15 nM | 76 nM | 46 nM |  |  | CCN(C(=O)c1cc(F)ccc1Oc1nncnc1N1CCC2(C1)CN([C@H](CCNCCOC)C(C)C)C2)C(C)C (single isomer, unassigned) [Compound 227, (*R)—N-ethyl-5-fluoro-N-isopropyl-2-((5(2-(1-((2-methoxyethyl)amino)-4-methylpentan-3-yl)-2,6-diazaspiro[3.4]octan-6-yl)-1,2,4-triazin-6-yl)oxy)benzamide fumarate] | > 15000 nM | > 30200 nM |  |  |  |  |  |  |  |
| 1070 nM | 0.26 nM | 230 nM | 170 nM |  |  | CCN(C(=O)c1cc(F)ccc1Oc1nncnc1N1CCC2(C1)CN([C@H](C[C@H](C)CN(C)CCOC)C(C)C)C2)C(C)C (single isomer, unassigned) [Compound 242] | > 15000 nM | > 30200 nM |  |  |  |  |  |  |  |
